melting point	Structure (SMILES)
69 to 70 °C	O=C(Nc1ccnn1C1CCN(C/C=C/c2ccc(Cl)cc2)CC1)c1ccnc(Cl)c1
78 to 80 °C	O=C(Nc1cccnc1C1CCN(C/C=C/c2ccc(Cl)cc2)CC1)c1ccnc(Cl)c1
75 to 77 °C	O=C(Nc1cccnc1C1=CCN(C/C=C/c2ccc(Cl)cc2)CC1)c1ccnc(Cl)c1

From patent US8129534B2, “Chemical compounds” (priority 2004, dated 2012)
